The text below walks through data of patent US20260137697A1, “THIAZOLO[5,4-D]PYRIMIDINE COMPOUNDS, COMPOSITIONS COMPRISING THEM AND USES THEREOF” (University de Montreal, priority 2022, published 2026).

As usually defined, the IC50 is the concentration at which inhibition is half-maximal.

Structures are written as SMILES.

For test [1], the target named is T1, BRAF (Homo sapiens, UniProt P15056).
T1 construct: GST; purchased Millipore Sigma B4062-10UG
Description: BRAF kinase activity assay (ADP-Glo). The class given is biochemical. As to conditions: Table 3; 10 μM ATP, kinase-dead MEK1 substrate. The protocol: (§1) Compound preparation: solid samples of each substance in 1dram vials were suspended in DMSO (Fisher Scientific) at a stock concentration of 20 mM. Stocks were kept at −20° C. and protected from light. If solubility of the compound at 20 mM appeared to be an issue, the initial concentration of the DMSO stock was changed to 10 mM or 5 mM.
(§2) In vitro enzymatic reactions were used for evaluating compounds intrinsic activity against BRAF, CRAF and ARAF. For BRAF and CRAF, 0.375 nM of purified GST-tagged kinases (cat. No. B4062-10UG and cat. No. R1656-10UG respectively from Millipore Sigma) were incubated with 75 nM of kinase-dead MEK1 substrate (cat. No. 40075; BPS Bioscience) in the presence of 10 μM of Ultrapure ATP (cat. No. V9102; Promega; part V915A) with and without the test compound in a buffer containing 50 mM HEPES pH 7.5, 10 mM MgCl2, 1 mM EDTA, 0.01% Brij-35 and 2 mM DTT. Separate reactions were performed with the MEK1 substrate and ATP as a blank control. ARAF kinase reactions were rigorously the same with the exception that kinase concentration was raised to 3.75 nM (cat. No. 1768-0000-1; Reaction Biology).
(§3) For compound treatment, 5 μL/well of test substance solution are placed in a 384-well proxyplate (Perkin Elmer) and mixed with 2× concentrated kinase reactions. The dilution series is selected so that nine concentrations cover a range from 100 nM to 0.01 nM. […] The final concentration of DMSO in the assay is set at 0.05%.
(§4) BRAF and CRAF kinase reactions were carried out for a total of 2 hours at 30° C. and then stopped by 1/2 dilution in ADP-Glo Reagent (cat. No. V9102; Promega; part V912C). Reactions were then incubated for 1 h at room temperature before addition of one volume of Kinase Detection Reagent (cat. No. V9102; Promega; part V917A). Plates were then equilibrated at room temperature for 30 minutes before detection of luminescence on a Synergy Neo2 plate reader (Biotek). The effect of each compound dilution on BRAF and CRAF kinase activity was expressed as % inhibition and calculated as follows. First, the internal 100% inhibition control (average of luminescence in kinase reactions comprising kinase dead MEK1 substrate alone) was subtracted from each data point. The average of DMSO (vehicle) controls (set as 0% inhibition) was established and used to calculate % inhibition:
(§5) IC50 values were obtained by plotting the kinase inhibition values and fitting the dose-activity curves using a log(agonist) versus response—variable slope (four parameters) function using either GraphPadPrism (V7.0) or Dotmatics Screening Ultra platform. Standards included in the ARAF kinase assay were Belvarafenib (MedChem Express cat. No. HY-109080; CAS No. 1446113-23-0), LXH254 (MedChem Express cat. No. HY-112089; CAS No. 1800398-38-2) and BGB283 (cat. No. HY-18957; CAS No. 1446090-79-4).
(ADP-Glo turns the ADP formed in a reaction into a luminescent signal.)

Test [2] has as its target T2, CRAF (Homo sapiens, UniProt P04049).
T2 construct: fused on or other part: GST tag (N-terminal according to the vendor's product)
As to the kind of experiment: CRAF kinase activity assay (ADP-Glo). It counts as biochemical. As to conditions: Table 3; 10 μM ATP, kinase-dead MEK1 substrate. The protocol:
as §1, §2, §3, §4, §5

The test system of test [3] is pERK, HCT116 cells. As to the kind of experiment: Phospho-ERK inhibition, AlphaLISA p-ERK 1/2, HCT-116. As to conditions: Table 3; for IC50: HCT116 cells (KRAS G13D), 1 h treatment; for HCT116 pERK (Ymin %): lowest % inhibition value of the pERK IC50 curve, above −20% = no paradoxical induction. It counts as cell-based, human. The protocol: All cancer cell lines (A375, A101D, A2058, RKO, HT29 SK-MEL 30, IPC298, HepG2, HCT-116, Lovo, SW620, SW480, NCI-H358, NCI-H2122, Calu-6, NCIH2087, NCIH1755, NCIH1666 and Mewo) were obtained from ATCC and cultured in RPM1-1640 medium (Gibco) supplemented with 5% heat inactivated fetal bovine serum (FBS, Wisent) at 37° C. under 5% CO2. Cells were maintained in T175 flasks (Greiner). They were passaged by removing the culture medium, washing once in 10 mL of room temperature Phosphate Buffered Saline (PBS; Wisent) and incubating at 37° C. with 2 mL of 0.05% Trypsin (Thermo-Fisher). Trypsin was then inactivated by adding complete growth medium and the cells were then replated in a T175 culture dish at the appropriate dilution. All cell lines were routinely tested for mycoplasma contamination. Tissue type and mutational status of each cell line can be found in Table B.
(c) Measurement of Phospho-ERK Inhibition in Cultivated Human Cancer Cell Lines by the AlphaLISA® SureFire® Ultra™ p-ERK 1/2 (Thr2O2/Tyr204)
AlphaLISA® SureFire® Ultra™ p-ERK 1/2 (Thr202/Tyr204) analysis was conducted on cells plated in 100 μL of complete RPMI-1640 growth medium in 96-well flat-bottomed transparent dishes (Costar) at a density indicated in Table C. Cells were maintained overnight at 37° C. under 5% CO2 before treatment with compounds' dilution series for one hour. The cell density in cells/cm^2 corresponds to cell number divided by the area of one well of a 96-well plate (0.143 cm^2).
In a dilution series 100 μL/well of test substance dilution prepared in complete RPMI-1640 growth media was added to the cells. The dilution series is selected so that ten concentrations cover a range from 10 μM to 0.33 nM. If necessary, the initial concentration of 10 μM is increased to 100 μM or lowered to 1 μM (as in the case of A375 and H1666 cells, which are generally more sensitive to the compounds) and further dilution is carried out accordingly. The final concentration of DMSO in the assay is set at 0.5%.
After treatment, media was removed, and cells were lysed in 50 μL of 1× AlphaScreen Ultra Lysis Buffer (Perkin Elmer). The AlphaLISA® SureFire® Ultra™ p-ERK 1/2 (Thr202/Tyr204) (PerkinElmer) reactions were performed with 5 μL of cell lysate according to the manufacturer's specifications in 384-well proxyplates (Perkin Elmer) followed by overnight incubation of the reactions at room temperature in a humidified chamber. After completion of the reactions, the signals were recorded on an EnVision plate reader (Perkin Elmer) using built in AlphaLISA® settings.
The effect of each compound dilution on the pERK signal was expressed in % inhibition and calculated as follows. An internal 100% inhibition control (1 μM trametinib, cat. No. HY-10999; MedChem Express; CAS No. 871700-17-3) was included in each plate and used as a measure of pERK background. First, the value obtained for trametinib was subtracted from each data point. The average of DMSO (vehicle) controls (set as 0% inhibition) was established and used to calculate % inhibition:
The ability of each compound to inhibit pERK signal was expressed as an IC50 value obtained by plotting the inhibition values for each data point of a dilution series and fitting the obtained curves using a log(agonist) versus response—variable slope (four parameters) function using GraphPadPrism (V7.0) or Dotmatics Screening Ultra platform.
When present, paradoxical pERK induction is inferred from the negative % inhibition values observed in the pERK IC50 curves of a compound.
For orientation: In Alpha technology, singlet oxygen from a donor bead excites a nearby acceptor bead.

T1 sequence (P15056 whole entry): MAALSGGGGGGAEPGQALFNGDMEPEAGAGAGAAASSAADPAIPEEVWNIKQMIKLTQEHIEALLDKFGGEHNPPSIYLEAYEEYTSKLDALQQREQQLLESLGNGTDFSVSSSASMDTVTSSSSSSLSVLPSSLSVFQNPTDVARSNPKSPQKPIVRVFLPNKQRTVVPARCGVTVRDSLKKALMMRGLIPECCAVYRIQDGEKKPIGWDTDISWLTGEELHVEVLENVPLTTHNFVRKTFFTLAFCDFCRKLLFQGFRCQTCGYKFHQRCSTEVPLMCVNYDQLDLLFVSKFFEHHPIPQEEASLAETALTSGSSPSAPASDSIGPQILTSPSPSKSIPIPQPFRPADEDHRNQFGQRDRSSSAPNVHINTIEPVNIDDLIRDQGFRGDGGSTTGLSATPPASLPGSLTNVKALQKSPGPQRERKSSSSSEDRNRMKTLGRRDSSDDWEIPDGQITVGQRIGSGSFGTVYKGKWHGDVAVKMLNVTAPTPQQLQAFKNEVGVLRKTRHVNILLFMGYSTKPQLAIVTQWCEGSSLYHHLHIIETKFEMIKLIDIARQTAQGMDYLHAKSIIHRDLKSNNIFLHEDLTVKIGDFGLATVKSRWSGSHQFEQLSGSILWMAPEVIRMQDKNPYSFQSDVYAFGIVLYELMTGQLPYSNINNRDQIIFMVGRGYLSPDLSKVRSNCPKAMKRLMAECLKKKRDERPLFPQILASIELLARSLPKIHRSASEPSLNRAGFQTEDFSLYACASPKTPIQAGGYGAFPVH
T2 sequence (P04049 whole entry Y340E/Y341E, form open, the tested form may be a part): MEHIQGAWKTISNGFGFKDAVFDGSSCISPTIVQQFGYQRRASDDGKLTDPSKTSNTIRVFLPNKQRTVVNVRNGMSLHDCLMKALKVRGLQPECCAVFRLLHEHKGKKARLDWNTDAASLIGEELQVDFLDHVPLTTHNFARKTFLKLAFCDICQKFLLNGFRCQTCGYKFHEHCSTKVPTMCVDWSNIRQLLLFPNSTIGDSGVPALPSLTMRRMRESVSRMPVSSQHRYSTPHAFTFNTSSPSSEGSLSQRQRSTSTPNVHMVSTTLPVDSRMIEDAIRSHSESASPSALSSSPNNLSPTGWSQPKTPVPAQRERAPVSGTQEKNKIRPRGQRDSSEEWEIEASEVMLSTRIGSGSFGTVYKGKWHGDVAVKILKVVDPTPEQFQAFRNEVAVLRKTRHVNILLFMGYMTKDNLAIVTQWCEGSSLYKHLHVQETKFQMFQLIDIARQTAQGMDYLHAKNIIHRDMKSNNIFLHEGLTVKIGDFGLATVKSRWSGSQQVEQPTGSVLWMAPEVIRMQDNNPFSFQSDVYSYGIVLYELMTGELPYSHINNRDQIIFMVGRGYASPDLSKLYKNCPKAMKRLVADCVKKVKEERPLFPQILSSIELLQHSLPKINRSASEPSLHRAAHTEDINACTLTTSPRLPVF

On to `O=S(=O)(Nc1ccc(F)c(Nc2ncnc3sc(-n4cnc5cc(F)c(F)cc54)nc23)c1F)c1cccc(Cl)c1Cl` [Example 19], for which the concentration for half-maximal inhibition (IC50) in test [1] was 1 to 10 nM; in test [2], less than 10 nM; in test [3], 500 to 1000 nM. The “HCT116 pERK (Ymin %)” value in test [3] is given as −14%.
For `Cc1cc2ncn(-c3nc4c(Nc5c(F)ccc(NS(=O)(=O)c6cccc(Cl)c6Cl)c5F)ncnc4s3)c2cc1C` [Example 20], in that order: 1 to 10 nM, 10 to 50 nM, less than 500 nM and −12%.
For the compound `O=S(=O)(Nc1ccc(F)c(Nc2ncnc3sc(-n4nnc5ccccc54)nc23)c1F)c1cccc(Cl)c1Cl` [Example 21], the IC50 is more than 10 nM in test [1], 10 to 50 nM in test [2] and 1000 to 10000 nM in test [3]. Further, in test [3], the “HCT116 pERK (Ymin %)” value is −4%.
In the same order, the values of `Cc1c(F)cccc1S(=O)(=O)Nc1ccc(F)c(Nc2ncnc3sc(-n4nnc5ccccc54)nc23)c1F` [Example 22] are more than 10 nM, more than 50 nM, 1000 to 10000 nM and −8%.
As for `Cc1c(F)cccc1S(=O)(=O)Nc1ccc(F)c(Nc2ncnc3sc(-n4nc(C(=O)N(C)Cc5cccnc5)c5ccccc54)nc23)c1F` [Example 23], the concentration for half-maximal inhibition (IC50) in test [1] was more than 10 nM; in test [2] it was more than 50 nM; in test [3] (Homo sapiens, HCT-116), 1000 to 10000 nM.
Regarding `Cc1c(F)cccc1S(=O)(=O)Nc1ccc(F)c(Nc2ncnc3sc(-n4nc(C(=O)NCc5cccnc5)c5ccccc54)nc23)c1F` [Example 24], the IC50 in test [1] was more than 10 nM; in test [2] it was 10 to 50 nM; in test [3], 500 to 1000 nM. The “HCT116 pERK (Ymin %)” value in test [3] is on record as 2%.
In the same order, the values of `Cc1c(F)cccc1S(=O)(=O)Nc1ccc(F)c(Nc2ncnc3sc(-n4nc(C(=O)N(C)CCc5ccccn5)c5ccccc54)nc23)c1F` [Example 25] are more than 10 nM, more than 50 nM, 1000 to 10000 nM and 2%.
Consider `COCCN(C)C(=O)c1nn(-c2nc3c(Nc4c(F)ccc(NS(=O)(=O)c5cccc(F)c5C)c4F)ncnc3s2)c2ccccc12` [Example 26], for which the values for the IC50 in test [1], in test [2] and in test [3] were more than 10 nM, more than 50 nM and 1000 to 10000 nM, respectively. Moreover, the “HCT116 pERK (Ymin %)” value in test [3] was −13%.
For `Cc1c(F)cccc1S(=O)(=O)Nc1ccc(F)c(Nc2ncnc3sc(-n4nc(C(=O)N(C)CCN(C)C)c5ccccc54)nc23)c1F` [Example 27], the IC50 in test [1] lay in the range of 1 to 10 nM; in test [2], 10 to 50 nM; in test [3], 500 to 1000 nM. Besides, the “HCT116 pERK (Ymin %)” value in test [3] is listed as −3%.
As for `Cc1c(F)cccc1S(=O)(=O)Nc1ccc(F)c(Nc2ncnc3sc(-n4cc(C(=O)N(C)CCc5ccccn5)c5ccccc54)nc23)c1F` [Example 28], the half-inhibitory concentration (IC50) in test [1] was 1 to 10 nM; in test [2] it was 10 to 50 nM; in test [3] (Homo sapiens, HCT-116) it was less than 500 nM.
With `Cc1c(F)cccc1S(=O)(=O)Nc1ccc(F)c(Nc2ncnc3sc(-n4cc(C(=O)NCc5cccnc5)c5ccccc54)nc23)c1F` [Example 29], the IC50 was more than 10 nM in test [1], more than 50 nM in test [2] and 500 to 1000 nM in test [3]. For the same compound, the “HCT116 pERK (Ymin %)” value in test [3] worked out at 5%.
`Cc1c(F)cccc1S(=O)(=O)Nc1ccc(F)c(Nc2ncnc3sc(-n4cc(C(=O)N(C)Cc5ccncc5)c5ccccc54)nc23)c1F` [Example 30]: the values for the IC50 in test [1], in test [2] and in test [3] were 1 to 10 nM, 10 to 50 nM and less than 500 nM, respectively. The “HCT116 pERK (Ymin %)” value in test [3] is given as −3%.
Take `Cc1c(F)cccc1S(=O)(=O)Nc1ccc(F)c(Nc2ncnc3sc(-n4cc(C(=O)N(C)Cc5cccnc5)c5ccccc54)nc23)c1F` [Example 31]: the IC50 was 1 to 10 nM in test [1], less than 10 nM in test [2] and 500 to 1000 nM in test [3]. Moreover, the “HCT116 pERK (Ymin %)” value in test [3] was 7%.
For `Cc1c(F)cccc1S(=O)(=O)Nc1ccc(F)c(Nc2ncnc3sc(-n4nc(C(=O)N5CCC(CO)C5)c5ccccc54)nc23)c1F` (stereo not drawn) [Example 32], in that order: 1 to 10 nM, 10 to 50 nM, 1000 to 10000 nM and −13%.
